Data taken from US20230339866A1, “Quinazoline compounds and the use thereof in the treatment of cancer” (TROBIO THERAPEUTICS PTY LTD, priority 2020, published 2023).

Tests used:
[1] = test system: A2780 ovarian cancer cells; details: read-out: IC50 values used for the dose matrix (cytotoxic agents); A2780, single agent, MTS 72 hours
Procedure: The A2780 cell line was maintained as a monolayer in Dulbeccos Modified Eagles medium (DMEM) supplemented with 10% foetal bovine serum (FBS) and grown at 37° C. in a humidified atmosphere with 5% CO2. […] Each screening plate contained one 6×6 dose matrix for two drugs using two-fold dilution steps. […] Viability was measured after 72 hours using a standard MTS assay.
Synergistic drug interactions were determined for each pairwise drug combination by applying the Bliss-independence model that assumes independence of drug mechanisms.
The Bliss additivism model was used to calculate a predicted combined response C to two single agents with responses A and B (using GI values), as follows:
The final score for any combination was reported as the difference between the value predicted by the additive model and the experimentally observed value, normalised to 100. Using GI values the maximum possible synergy score is 100, with 0 indicating no synergy and negative indicating possible antagonism. Scores were also reported as a “Max synergy” score, which is the highest individual synergy score for each combination matrix, and a “Total synergy” score, which was obtained by summation of each individual synergy score for the matrix.

Tpm3.1 = Tpm3.1 (Homo sapiens, UniProt P06753); test: Circular dichroism spectroscopy, thermal unfolding of Tpm3.1 peptides; type: binding; design: N-terminus (residues 2-80 with an initial Ala-Gly dipeptide to mimic N-terminal acetylation) of Tpm3.1; Peptides corresponding to the C-terminus (residues 139-248) and N-terminus; made in house; details: test compound 100 μM, peptide 20 μM, CD at 222 nm
Procedure: The interactions of compounds 11, 13, 32 and 92 with the N-terminus and overlap region of Tpm3.1 were measured using circular dichroism (CD) spectroscopy (see FIG. 1). Peptides corresponding to the C-terminus (residues 139-248) and N-terminus (residues 2-80 with an initial Ala-Gly dipeptide to mimic N-terminal acetylation) of Tpm3.1 were prepared as described in the literature (Janco et al., 2019). CD spectra and thermal unfolding isotherms of N_82AA_Tpm3.1 and C_109AA_Tpm3.1 peptides were acquired on a Chirascan Plus CD Spectrometer (Applied Photophysics Limited, U.K.) in stoppered 0.5 mm cuvettes (48/Q/0.5; Starna Scientific Ltd.). Proteins were dialyzed O/N against 10 mM NaH2 PO4, 150 mM NaCl, 75 μM TCEP (added prior to experiment), 1% (v/v) acetonitrile pH 7 buffer. Final concentration of peptides was 20 μM. Tpm samples containing the test compound (100 μM) were incubated at 37° C. O/N. CD spectra were measured from 195 to 260 nm with a 1 nm step size and a […], taking 3 to 4 averages at 37° C. The thermal unfolding was carried at 222 nm over the range 20-85° C. at the rate of 1° C./min. Sample was cooled down to the initial temperature and heating procedure was repeated 2 to 3 times. To obtain information of the major thermal transitions from individual isotherms, data were further smoothed by the Savitzky-Golay method (5-point window), differentiated and then fitted to multiple Gaussian peaks as described previously (Janco et al., 2012) (FIG. 2).

[2] = test system: SK-N-SH neuroblastoma cells; test: Anti-proliferative activity (MTS assay) against SK-N-SH neuroblastoma cells; type: cell-based; details: Homo sapiens, SK-N-SH, 72 h
Procedure: The ability of compounds of the disclosure to inhibit the proliferation of SK-N-SH neuroblastoma cells was also assessed. […] Cell viability was normalised to control (vehicle alone) and dose response curves and IC50 values (Table 4) were determined using Graph Pad Prism 6.

A549 (NSCLC) = test: Anti-proliferative activity (Cell-Titre luminescence) against A549 non-small cell lung cancer cells; type: cell-based; details: Homo sapiens, A549, 72 h, 72 h exposure, Cell-Titre luminescent reagent
Procedure, shortened: (§1)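 EC50 derived by nonlinear variable-slope sigmoidal fit of luminescent Cell-Titre viability, normalised to vehicle control. Compound (0.1–30 μM, six concentrations) applied for 72 h after 24 h attachment at 37 °C, 5% CO2.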

A2780 (ovarian) = test: Anti-proliferative activity (Cell-Titre luminescence) against A2780 ovarian cancer cells; type: cell-based; details: Homo sapiens, A2780, 72 h, 72 h exposure, Cell-Titre luminescent reagent
Procedure, shortened: as §1

Row | Effect on melting profile of the Tpm3.1 N-terminal peptide construct (Tpm3.1) | Effect on stability (melting profile) of the overlap complex formed by the N- and C-terminal peptides (Tpm3.1) | Effect on stability of the Tpm3.1 N-terminal peptide (Tpm3.1) | IC50 [2] | IC50 (A549 (NSCLC)) | IC50 (A2780 (ovarian)) | Structure (SMILES) | IC50 [1]
1 | – | – | – | – | – | – | CCC1=C[C@@H]2CN(C1)Cc1c([nH]c3ccccc13)[C@@](C(=O)OC)(c1cc3c(cc1OC)N(C)[C@H]1[C@@](O)(C(=O)OC)[C@H](OC(C)=O)[C@]4(CC)C=CCN5CC[C@]31[C@@H]54)C2 [vinorelbine, reference compound] | 0.004 µM
2 | alter the melting profile | increasing | decrease the stability | 4.09 µM | 4.63 µM | 1.28 µM | OCCNc1nc(NCc2ccc(C(F)(F)F)cc2)nc2ccccc12 [Compound 32, 2-((2-((4-(trifluoromethyl)benzyl)amino)quinazolin-4-yl)amino)ethan-1-ol] | –
3 | alter the melting profile | decreasing | decrease the stability | 9.11 µM | 10.3 µM | 6.43 µM | CN1CCN(CCNc2nc(-c3ccsc3)nc3ccccc23)CC1 [Compound 11, N-(2-(4-methylpiperazin-1-yl)ethyl)-2-(thiophen-3-yl)quinazolin-4-amine] | –
4 | alter the melting profile | – | stabilizing effect | 1.72 µM | 6.5 µM | 5.65 µM | CN1CCN(CCNc2nc(-c3cc[nH]c3)nc3ccccc23)CC1 [Compound 13, N-(2-(4-methylpiperazin-1-yl)ethyl)-2-(1H-pyrrol-3-yl)quinazolin-4-amine] | –
